Test results published in patent publication US20230065953A1, “NOVEL HETEROARYL-TRIAZOLE COMPOUNDS AS PESTICIDES” (Bayer Aktiengesellschaft, priority 2019, published 2023).

Columns and labels:
Type in all cases: in vivo
[1] = system: adult engorged female ticks (Rhipicephalus microplus); test: Rhipicephalus (Boophilus) microplus injection test; conditions: 168 h, 4 μg/animal, egg deposition after 7 days, read-out: efficacy (infertile eggs)
Procedure: Rhipicephalus (Boophilus) Microplus—Injection Test
(§1) Solvent: dimethyl sulfoxide
To produce a suitable preparation of active compound, 10 mg of active compound are dissolved in 0.5 mL solvent, and the concentrate is diluted with solvent to the desired concentration.
Five adult engorged female ticks (Rhipicephalus microplus) are injected with 1 μL compound solution into the abdomen. The ticks are transferred into replica plates and incubated in a climate chamber.
After 7 days egg deposition of fertile eggs is monitored. Eggs where fertility is not visible are stored in a climate chamber till hatching after about 42 days. An efficacy of 100% means all eggs are infertile; 0% means all eggs are fertile.

[2] = system: adult unfed cat fleas (Ctenocephalides felis); test: Ctenocephalides felis oral test; conditions: 48 h
Procedure: Ctenocephalides felis—Oral Test
as §1
To produce a suitable preparation of active compound, 10 mg of active compound are dissolved in 0.5 mL solvent, and the concentrate is diluted with cattle blood to the desired concentration.
Approximately 20 adult unfed cat fleas (Ctenocephalides felis) are placed in flea chambers. The blood chamber, sealed with parafilm on the bottom, are filled with cattle blood supplied with compound solution and placed on the gauze covered top of the flea chamber, so that the fleas are able to suck the blood. The blood chamber is heated to 37° C. whereas the flea chamber is kept at room temperature.
After 2 days mortality in % is determined. 100% means all the fleas have been killed; 0% means none of the fleas have been killed.

[3] = system: larvae of the banded cucumber beetle (Diabrotica balteata); test: Diabrotica balteata spray test; conditions: 168 h, 100 g/ha (=32 μg/well), wheat seeds, after 7 days, read-out: efficacy (seedling growth)
Procedure: Diabrotica Balteata—Spray Test
• Solvent: 78.0 parts by weight of acetone • 1.5 parts by weight of dimethylformamide • Emulsifier: alkylarylpolyglycol ether
Further test concentrations are prepared by dilution with emulsifier containing water.
Soaked wheat seeds (Triticum aestivum) are placed in a multiple well plate filled with agar and some water and are incubated for 1 day to germinate (5 seeds per well). The germinated wheat seeds are sprayed with a test solution containing the desired concentration of the active ingredient. Afterwards each unit is infected with 10-20 larvae of the banded cucumber beetle (Diabrotica balteata).
After 7 days efficacy in % is determined.

[4] = system: Rhipicephalus microplus larvae (strain Parkhurst, resistant against synthetic pyrethroids); test: Rhipicephalus (Boophilus) microplus in-vitro contact test, larval cattle tick; conditions: 5 μg/cm^2 (=500 g/ha), after 48 hours, read-out: efficacy (larvae dead or moribund)
Procedure: Rhipicephalus (Boophilus) Microplus—In-Vitro Contact Tests Larval Cattle Tick (Strain Parkhurst, Resistant Against Synthetic Pyrethroids)
9 mg compound is solved in 1 mL acetone and diluted with acetone to the desired concentration. 250 μL of the test solution is filled in 25 mL glass test tubes and homogeneously distributed on the inner walls by rotation and tilting on a shaking device (2 h at 30 rpm). With a compound concentration of 900 ppm, an inner surface of 44.7 cm^2 and a homogeneous distribution, a dose of 5 μg/cm^2 is achieved.
After the solvent has evaporated, each test tube is filled with 20-50 cattle tick larvae (Rhipicephalus microplus), closed with a perforated lid and incubated in a horizontal position at 85% relative humidity and 27° C. in an incubator. After 48 hours efficacy is determined. The larvae are patted on the ground of the tubes and negative geotactic behavior is recorded.
An efficacy of 100% means all larvae are dead or moribund; 0% means no larvae are dead or moribund.

[5] = system: green peach aphid (Myzus persicae); test: Myzus persicae oral test; conditions: 120 h
Procedure: Myzus persicae—oral test • Solvent: 100 parts by weight acetone
To produce a suitable preparation of active compound, 1 part by weight of active compound is mixed with the stated amount of solvent, and the concentrate is diluted with water to the desired concentration. 50 μL compound solution is filled in microtiter plates and 150 μL IPL41 insect medium (33%+15% sugar) is added to obtain a total volume of 200 μL per well. Afterwards the plates are sealed with parafilm through which a mixed population of the green peach aphid (Myzus persicae) can suck on the compound preparation.
(§2) After 5 days mortality in % is determined. 100% means all aphids have been killed and 0% means none of the aphids have been killed.

[6] = system: fall armyworm larvae (Spodoptera frugiperda); test: Spodoptera frugiperda spray test (maize leaf sections); conditions: 168 h
Procedure: Spodoptera frugiperda—Spray Test • Solvent: 78.0 parts by weight acetone • 1.5 parts by weight dimethylformamide • Emulsifier: alkylarylpolyglycol ether
(§3) To produce a suitable preparation of active compound, 1 part by weight of active compound is mixed with the stated amount of solvents and is diluted with water, containing an emulsifier concentration of 1000 ppm, to the desired concentration. Further test concentrations are prepared by dilution with emulsifier containing water.
Maize (Zea mays) leaf sections are sprayed with a preparation of the active ingredient of the desired concentration. Once dry, the leaf sections are infested with fall armyworm larvae (Spodoptera frugiperda).
After 7 days mortality in % is determined. 100% means all caterpillars have been killed and 0% means none of the caterpillars have been killed.

[7] = system: green peach aphid (Myzus persicae); test: Myzus persicae spray test; conditions: foliar, 120 h, Chinese cabbage leaf disks, after 5 days
Procedure: Myzus persicae—Spray Test • Solvent: 78.0 parts by weight acetone • 1.5 parts by weight dimethylformamide • Emulsifier: alkylarylpolyglycol ether
as §3
Chinese cabbage (Brassica pekinensis) leaf disks infected with all instars of the green peach aphid (Myzus persicae), are sprayed with a preparation of the active ingredient of the desired concentration.
as §2

[8] = system: larvae of the southern green stink bug (Nezara viridula); test: Nezara viridula spray test; conditions: in Hordeum vulgare, 96 h
Procedure: Nezara viridula—Spray Test • Solvent: 78.0 parts by weight of acetone • 1.5 parts by weight of dimethylformamide • Emulsifier: alkylarylpolyglycol ether
To produce a suitable preparation of active compound, 1 part by weight of active compound is mixed with the stated amount of solvent, and the concentrate is diluted with water, containing an emulsifier concentration of 1000 ppm, to the desired concentration. Further test concentrations are prepared by dilution with emulsifier containing water.
Barley plants (Hordeum vulgare) are sprayed with a test solution containing the desired concentration of the active ingredient and are infested with larvae of the southern green stink bug (Nezara viridula).
After 4 days mortality in % is determined. 100% means all the stink bugs have been killed; 0% means none of the stink bugs have been killed.

[9] = system: adult flies Musca domestica strain WHO-N; test: Musca domestica test (MUSCDO surface treatment & contact assay); conditions: surface concentration 20 mg/m^2, 30 min exposure, 24 hours after contact, read-out: efficacy (mortality)
Procedure: Musca domestica Test (MUSCDO Surface Treatment & Contact Assay) • Solvent: Aceton+2000 ppm rapeseed oil methyl ester (RME)
In order to produce a sufficient, active ingredient containing solution it is necessary to solve the test compound in the solvent-mix (acetone at 2 mg/ml/RME 2000 ppm). This solution is pipetted onto a glazed tile and after evaporation of the acetone, adult flies of the species Musca domestica strain WHO-N are placed onto the dried surface. The exposure time is 30 minutes.
Mortality in percent (%) is determined 24 hours after contact of the insects to the treated surface. 100% mortality means that all tested insects are dead, whereas 0% means that no insect died.

| SMILES | pest or weed control at 0.004 mg [1] [%] | mortality at 100 ppm [2] [%] | pest or weed control at 32 µg/disc, 100 g/ha [3] [%] | pest or weed control at 5 µg/cm2 [4] [%] | mortality at 4 ppm [5] [%] | mortality at 100 g/ha [6] [%] | mortality at 100 g/ha [7] [%] | mortality at 500 g/ha [8] [%] | mortality at 20 mg/m2 [9] [%] | mortality at 100 g/ha [8] [%] |
| --- | --- | --- | --- | --- | --- | --- | --- | --- | --- | --- |
| CC(NC(=O)c1cc(Br)cc(Br)c1)c1ncnn1-c1ncc(C#N)s1 (centres unmarked) [I-27] | 100 | 100 | 100 |  |  |  |  |  |  |  |
| CC(NC(=O)c1cc(Br)cc(I)c1)c1ncnn1-c1ncc(C#N)s1 (centres unmarked) [I-29] | 100 | 100 |  | 90 |  |  |  |  |  |  |
| C[C@H](NC(=O)c1cc(Cl)cc(S(C)(=O)=O)c1)c1nc(C2CC2)nn1-c1ncc(C#N)s1 [I-40, 3-chloro-N-{(1S)-1-[1-(5-cyano-1,3-thiazol-2-yl)-3-cyclopropyl-1H-1,2,4-triazol-5-yl]ethyl}-5-(methylsulfonyl)benzamide] |  |  | 80 |  | 90 | 100 |  |  |  |  |
| C[C@H](NC(=O)c1cc(Cl)cc(S(=O)(=O)C2CC2)c1)c1nc(C2CC2)nn1-c1ncc(C#N)s1 [I-42] |  |  | 100 |  | 100 | 100 |  |  |  |  |
| C[C@H](NC(=O)c1cc(Cl)cc(S(=O)(=O)C2CC2)c1)c1ncnn1-c1ncc(C#N)s1 [I-46] |  |  | 100 |  |  | 100 | 90 | 100 |  |  |
| C[C@H](NC(=O)c1cc(Cl)cc(Br)c1)c1ncnn1-c1ncc(C#N)s1 [I-59] |  |  | 100 |  |  | 100 |  |  | 80 to 100 |  |
| Cc1nc([C@H](C)NC(=O)c2cc(Cl)cc(C(F)(F)F)c2)n(-c2ncc(C(=O)NC3CC3)s2)n1 [I-66] | 100 |  | 100 | 100 | 100 | 100 | 90 |  |  |  |
| Cc1nc([C@H](C)NC(=O)c2cc(Cl)cc(C(F)(F)F)c2)n(-c2ncc(C(=O)NCC3CC3)s2)n1 [I-67] | 100 |  | 100 | 100 | 100 | 100 |  |  |  |  |
| Cc1nc([C@H](C)NC(=O)c2cncc(C(F)(F)F)c2)n(-c2ncc(C(=O)N(C)CC#N)s2)n1 [I-73] |  |  |  | 100 | 100 |  | 90 |  |  |  |
| Cc1nc([C@H](C)NC(=O)c2cc(Cl)cc(S(=O)(=O)C3CC3)c2)n(-c2ncc(C(=O)N(C)CC#N)s2)n1 [I-74] |  |  |  |  | 100 |  | 90 |  |  |  |
| Cc1nc([C@H](C)NC(=O)c2cc(Cl)cc(S(C)(=O)=O)c2)n(-c2ncc(C(=O)N(C)C)s2)n1 [I-78] |  |  |  |  | 100 |  |  |  |  |  |
| Cc1nc([C@H](C)NC(=O)c2cc(Cl)cc(S(C)(=O)=O)c2)n(-c2ncc(C(=O)N(C)CC#N)s2)n1 [I-79] |  |  |  |  | 100 |  |  |  |  |  |
| Cc1nc([C@H](C)NC(=O)c2cc(Cl)cc(I)c2)n(-c2ncc(C(=O)N(C)CC#N)s2)n1 [I-81] |  |  | 100 | 100 | 100 | 100 |  |  |  |  |
| C[C@H](NC(=O)c1cc(OC(F)F)cc(OC(F)(F)F)c1)c1ncnn1-c1ncc(C#N)s1 [I-100] |  |  | 100 |  |  | 100 | 90 | 100 |  | 100 |
| C[C@H](NC(=O)c1cc(C(F)(F)F)cc(S(C)(=O)=O)c1)c1nc(C2CC2)nn1-c1ncc(C#N)s1 [I-103] |  |  | 100 |  |  | 100 |  | 90 | 80 to 100 |  |
| CNC(=O)c1cnc(-n2ncnc2[C@H](C)NC(=O)c2cc(OC(F)F)cc(OC(F)F)c2)s1 [I-112] |  |  | 100 |  |  | 100 | 100 | 100 |  | 100 |
| CNC(=O)c1cnc(-n2ncnc2[C@H](C)NC(=O)c2cc(Cl)cc(S(=O)(=O)C(F)F)c2)s1 [I-114] |  |  | 100 |  |  | 100 | 90 | 100 |  | 100 |
| CNC(=O)c1cnc(-n2ncnc2[C@H](C)NC(=O)c2cc(C(F)F)cc(C(F)F)c2)s1 [I-137] |  |  | 100 |  |  | 100 | 90 | 100 |  |  |
| C[C@H](NC(=O)c1cc(OC(F)(F)F)cc(S(=O)(=O)C(F)F)c1)c1ncnn1-c1ncc(C(=O)N(C)C)s1 [I-171] |  |  | 100 |  |  | 100 | 100 | 100 |  |  |
